Assay results published in US7419984B2, “Pyrimidines and uses thereof” (Cell Therapeutics, Inc., priority 2002, dated 2008).

Biological target: T1, human LPAAT-β (Homo sapiens, UniProt O15120)
T1 construct: the full-length human LPAAT-β cDNA was amplified by PCR; poly-histidine tag (N); made in house; host or cells: Sf9 insect cells (baculovirus, pFastBac HTc); the membrane fraction was used as the enzyme
T1 sequence (O15120 24-278): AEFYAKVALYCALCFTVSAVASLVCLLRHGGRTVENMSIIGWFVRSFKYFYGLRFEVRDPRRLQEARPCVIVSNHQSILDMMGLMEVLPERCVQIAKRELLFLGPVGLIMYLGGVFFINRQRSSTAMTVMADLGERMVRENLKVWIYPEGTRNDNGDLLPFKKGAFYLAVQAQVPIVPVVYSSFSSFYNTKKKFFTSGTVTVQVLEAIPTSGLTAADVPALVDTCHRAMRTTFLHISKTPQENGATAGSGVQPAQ
Assay: LPAAT-β cell-free assay
Assay type: biochemical
Conditions: Sf9 cell membrane overexpressing recombinant LPAAT-β
Procedure, shortened: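 Membranes from Sf9 cells expressing His/myc-tagged full-length human LPAAT-β were used in HEPES-saline pH 7.5 with 1 mg/ml BSA. Compound was added from a 200 μM DMSO stock, and reaction with 18:1-CoA and sn-1-18:1 lysoPA (1 mM stocks) ran 25 min at RT. Released CoA was detected with DTNB at 405 nm; a radiometric variant used 200 μM [14C]18:1-CoA and 200 μM lysoPA.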

SMILES | IC50 [nM]
Cc1ccc(Br)cc1-c1cc(Nc2ccc(Cl)cc2)nc(N)n1 [Example 84, 6-(5-Bromo-2-methyl-phenyl)-N*4*-(4-chloro-phenyl)-pyrimidine-2,4-diamine] | 31
Cc1ccc(Br)cc1-c1cc(Nc2ccc(Br)cc2)nc(N)n1 [Example 85, 6-(5-Bromo-2-methyl-phenyl)-N*4*-(4-bromo-phenyl)-pyrimidine-2,4-diamine] | 18
Cc1ccc(Br)cc1-c1cc(Nc2ccc(C#N)cc2)nc(N)n1 [Example 86, 4-[2-Amino-6-(5-bromo-2-methyl-phenyl)-pyrimidin-4-ylamino]-benzonitrile] | 40
Cc1ccc(Br)cc1-c1cc(Nc2ccc([N+](=O)[O-])cc2)nc(N)n1 [Example 88, 6-(5-Bromo-2-methyl-phenyl)-N*4*-(4-nitro-phenyl)-pyrimidine-2,4-diamine] | 21
Nc1nc(Nc2ccc(Cl)cc2)cc(-c2cc(Cl)ccc2OCC(F)(F)F)n1 [Example 89, N*4*-(4-Chloro-phenyl)-6-[5-chloro-2-(2,2,2-trifluoro-ethoxy)-phenyl]-pyrimidine-2,4-diamine] | 100
CCOc1ccc(Cl)cc1-c1cc(Nc2ccc(OCCO)cc2)nc(N)n1 [Example 90, 2-{4-[2-Amino-6-(5-chloro-2-ethoxy-phenyl)-pyrimidin-4-ylamino]-phenoxy}-ethanol] | 780
Nc1nc(Nc2ccc(Br)cc2)cc(-c2cc(Br)ccc2OCC(F)(F)F)n1 [Example 91, N*4*-(4-Bromo-phenyl)-6-[5-bromo-2-(2,2,2-trifluoro-ethoxy)-phenyl]-pyrimidine-2,4-diamine] | 190
CCOc1ccc(Cl)cc1-c1cc(Nc2ccc(CCCO)cc2)nc(N)n1 [Example 92, 3-{4-[2-Amino-6-(5-chloro-2-ethoxy-phenyl)-pyrimidin4-ylamino]-phenyl}-propan-1-ol] | 230
CCOc1ccc(Cl)cc1-c1cc(Nc2ccc(CCCCO)cc2)nc(N)n1 [Example 93, 4-{4-[2-Amino-6-(5-chloro-2-ethoxy-phenyl)-pyrimidin4-ylamino]-phenyl}-butan-1-ol] | 120
CCOc1ccc(Cl)cc1-c1cc(Nc2ccc(F)cc2)nc(N)n1 [Example 94, 6-(5-Chloro-2-ethoxy-phenyl)-N*4*-(4-fluoro-phenyl)-pyrimidine-2,4-diamine] | 32
CCOc1ccc(Cl)cc1-c1cc(Nc2ccc(CCCC(=O)O)cc2)nc(N)n1 [Example 95, 4-{4-[2-Amino-6-(5-chloro-2-ethoxy-phenyl)-pyrimidin4-ylamino]-phenyl}-butyric acid] | 310
CCOc1ccc(Cl)cc1-c1cc(Nc2ccc(S(N)(=O)=O)cc2)nc(N)n1 [Example 96, 4-[2-Amino-6-(5-chloro-2-ethoxy-phenyl)-pyrimidin-4-ylamino]-benzenesulfonamide] | 73
Cc1ccc(Cl)cc1-c1cc(Nc2ccc(F)cc2)nc(N)n1 [Example 97, 6-(5-Chloro-2-methyl-phenyl)-N*4*-(4-fluoro-phenyl)-pyrimidine-2,4-diamine] | 73
Nc1nc(Nc2ccc(Cl)cc2)cc(-c2cc(Cl)cc(Cl)c2Cl)n1 [Example 98, N*4*-(4-Chloro-phenyl)-6-(2,3,5-trichloro-phenyl)-pyrimidine-2,4-diamine] | 91
Nc1nc(Nc2ccc(Br)cc2)cc(-c2cc(Cl)cc(Cl)c2Cl)n1 [Example 99, N*4*-(4-Bromo-phenyl)-6-(2,3,5-trichloro-phenyl)-pyrimidine-2,4-diamine] | 130
Cc1ccc(Br)cc1-c1cc(Nc2ccc(CCO)cc2)nc(N)n1 [Example 100, 2-{4-[2-Amino-6-(5-bromo-2-methyl-phenyl)-pyrimidin-4-ylamino]-phenyl}-ethanol] | 49
Cc1ccc(Br)cc1-c1cc(Nc2ccc(CCCCO)cc2)nc(N)n1 [Example 101, 4-{4-[2-Amino-6-(5-bromo-2-methyl-phenyl)-pyrimidin4-ylamino]-phenyl}-butan-1-ol] | 290
Nc1nc(Nc2ccc(C(F)(F)F)cc2)cc(-c2cc(Cl)cc(Cl)c2Cl)n1 [Example 102, 6-(2,3,5-trichloro-phenyl) N*4*-(4-trifluoromethyl-phenyl)-pyrimidine-2,4-diamine] | 500
Cc1ccc(Cl)cc1-c1cc(Nc2ccc(C(O)C(F)(F)F)cc2)nc(N)n1 (stereo not shown) [Example 103, 1-{4-[2-Amino-6-(5-chloro-2-methyl-phenyl)-pyrimidin4-ylamino]-phenyl}-2,2,2-trifluoro-ethanol] | 54
CC(=NO)c1ccc(Nc2cc(-c3cc(Cl)ccc3C)nc(N)n2)cc1 [Example 104, 1-{4-[2-Amino-6-(5-chloro-2-methyl-phenyl)-pyrimidin-4-ylamino]-phenyl}-ethanone-oxime] | 160
Nc1nc(Nc2ccc(Cl)cc2)cc(-c2ccccc2C(F)(F)F)n1 [Example 105, N*4*-(4-Chloro-phenyl)-6-(2-trifluoromethyl-phenyl)-pyrimidine-2,4-diamine] | 1800
Nc1nc(Nc2ccc(Cl)cc2)cc(-c2ccccc2)n1 [Example 106, N*4*-(4-Chloro-phenyl)-6-phenyl-pyrimidine-2,4-diamine] | 1100
Cc1ccc(Cl)cc1-c1cc(Nc2ccc([N+](=O)[O-])cc2)nc(N)n1 [Example 108, 6-(5-Chloro-2-methyl-phenyl)-N*4*-(4-nitro-phenyl)-pyrimidine-2,4-diamine] | 15

More lines, now with the values ahead:

IC50 [nM] | SMILES
850 | Cc1ccc(Cl)cc1-c1cc(Nc2ccc(CCCO)cc2)nc(N)n1 [Example 109, 3-{4-[2-Amino-6-(5-Chloro-2-methyl-phenyl)-pyrimidin-4-ylamino]-phenyl}-propan-1-ol]
210 | Cc1ccc(Cl)cc1-c1cc(Nc2ccc(CCCCO)cc2)nc(N)n1 [Example 110, 4-{4-[2-Amino-6-(5-Chloro-2-methyl-phenyl)-pyrimidin-4-ylamino]-phenyl}-butan-1-ol]
280 | CSc1cccc(Nc2cc(-c3cc(Cl)ccc3C)nc(N)n2)c1 [Example 111, 6-(5-Chloro-2-methyl-phenyl)-N*4*-(3-methylsulfanyl-phenyl)-pyrimidine-2,4-diamine]
640 | Nc1nc(Nc2ccc(C(F)(F)F)cc2)cc(-c2cc(Cl)cc(Cl)c2)n1 [Example 112, 6-(3,5-Dichloro-phenyl)-N*4*-(4-trifuoromethyl-phenyl)-pyrimidine-2,4-diamine]
190 | Cc1ccc(Cl)cc1-c1cc(Nc2ccc(Cl)c(CO)c2)nc(N)n1 [Example 113, {5-[2-Amino-6-(5-chloro-2-methyl-phenyl)-pyrimidin-4-ylamino]-2-chloro-phenyl}-methanol]
42 | CCOC(=O)c1cccc(Nc2cc(-c3cc(Cl)ccc3C)nc(N)n2)c1 [Example 114, 3-[2-Amino-6-(5-chloro-2-methyl-phenyl)-pyrimidin4-ylamino]-benzoic acid ethyl ester]
210 | CCc1cccc(Nc2cc(-c3cc(Cl)ccc3C)nc(N)n2)c1 [Example 115, 6-(5-Chloro-2-methyl-phenyl)-N*4*-(3-ethyl-phenyl)-pyrimidine-2,4-diamine]
1100 | Cc1ccc(Cl)cc1-c1cc(Nc2ccc(C(CO)CO)cc2)nc(N)n1 [Example 116, 2-{4-[2-Amino-6-(5-chloro-2-methyl-phenyl)-pyrimidin-2-yl-amino]-phenyl}-propane-1,3-diol]
4900 | CCOc1ccc(Cl)cc1-c1cc(Nc2ccccc2Cl)nc(N)n1 [Example 117, 6-(5-Chloro-2-ethoxy-phenyl)-N*4*-(2-chloro-phenyl)-pyrimidine-2,4-diamine]
710 | Nc1nc(Nc2ccc(Cl)cc2)cc(-c2cccc(Cl)c2Cl)n1 [Example 118, 6-(2,3-Dichloro-phenyl)-N*4*-(4-chloro-phenyl)-pyrimidine-2,4-diamine]
610 | Nc1nc(Nc2ccc(C(F)(F)F)cc2)cc(-c2cccc(Br)c2)n1 [Example 119, 6-(3-Bromo-phenyl)-N*4*-(4-trifluoromethyl-phenyl)-pyrimidine-2,4-diamine]
180 | CCOc1ccc(Cl)cc1-c1cc(Nc2ccc(CC(C)(C)O)cc2)nc(N)n1 [Example 120, 1-{4-[2-amino-6-(5-chloro-2-ethoxyphenyl)pyrimidin-4-ylamino]phenyl}-2-methyl-propan-2-ol]
49 | CCOc1ccc(Cl)cc1-c1cc(Nc2ccc(C(C)=O)cc2)nc(N)n1 [Example 121, 1-{4-[2-amino-6-(5-chloro-2-ethoxyphenyl)pyrimidin-4-ylamino]phenyl}ethanone]
1200 | CCOc1ccc(Cl)cc1-c1cc(N(C)c2ccc(Cl)cc2)nc(N)n1 [Example 122, 6-(5-chloro-2-ethoxyphenyl)-N*4*-(4-chlorophenyl)-N*4*-methylpyrimidine-2,4-diamine]
150 | CC(=O)c1ccc(Nc2cc(-c3cc(Cl)ccc3C)nc(N)n2)cc1 [Example 123, 1-{4-[2-amino-6-(5-chloro-2-methylphenyl)pyrimidin4-ylamino]phenyl}ethanone]
110 | CCOc1ccc(Cl)cc1-c1cc(Nc2ccc(S(C)(=O)=O)cc2)nc(N)n1 [Example 124, 6-(5-chloro-2-ethoxyphenyl)-N*4*-(4-methanesulfonylphenyl)pyrimidine-2,4-diamine]
90 | Cc1ccc(Cl)cc1-c1cc(Nc2ccc3[nH]nnc3c2)nc(N)n1 [Example 125, N*4*-(1H-Benzotriazol-5-yl)-6-(5-chloro-2-methylphenyl)pyrimidine-2,4-diamine]
